Results on 28 compounds are retold here after patent US7998952B2, “Thiolactams and uses thereof” (Millennium Pharmaceuticals, Inc., priority 2008, dated 2011).

Bounds are passed on as bounds.

The assay deals with T1, recombinant human PLK1[2-369]T210D (Homo sapiens, UniProt P53350, T210D).
T1 construct: recombinant human PLK1[2-369]T210D; Smt (SUMO) fusion partner (N, cleaved yes); host or cells: E. coli
T1 sequence (P53350 2-369 T210D): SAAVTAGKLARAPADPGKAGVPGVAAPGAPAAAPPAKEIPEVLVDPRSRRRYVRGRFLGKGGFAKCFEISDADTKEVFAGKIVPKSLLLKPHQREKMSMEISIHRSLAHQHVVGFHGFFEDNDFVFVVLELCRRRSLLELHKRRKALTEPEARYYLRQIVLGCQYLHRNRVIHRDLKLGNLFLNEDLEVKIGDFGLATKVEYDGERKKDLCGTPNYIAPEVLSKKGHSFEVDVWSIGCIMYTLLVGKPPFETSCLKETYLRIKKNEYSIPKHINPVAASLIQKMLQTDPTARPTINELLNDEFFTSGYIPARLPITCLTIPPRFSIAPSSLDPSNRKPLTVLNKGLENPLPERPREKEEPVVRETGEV
The assay is described as follows: PLK1 DELFIA Kinase Assay. The format is biochemical. To be noted: 50 μM ATP, 2 μM peptide substrate, 0.3 nM enzyme, 90 minutes at room temperature. On the procedure: Recombinant human PLK1 was expressed in E. coli as an N-terminal Smt fusion protein using a proprietary vector (pSGX4) by Structural Genomics (SGX). The fusion partner was removed through cleavage with Ulp1 after an initial purification using a Ni2+ affinity column.
PLK1 DELFIA® Kinase Assay
The enzymatic reaction mixture, with or without PLK inhibitors, was incubated 90 minutes at room temperature before termination with 50 μL of STOP buffer containing 1% BSA, 0.05% Tween20, 100 mM EDTA. 50 μL of the stopped enzyme reaction mixture was transferred to a Neutravidin-coated 384-well plate (Pierce) and incubated at room temperature for 60 minutes. […] The wells were washed and then the bound europium was liberated using 50 μL of Enhancement Solution (Perkin Elmer). Quantification of europium was done using a Pherastar (BMG Labtech)
For the compound `Cc1nc(N(C)C2CCN(C)CC2)ccc1Nc1ncc2c(n1)-c1ccc(C(F)(F)F)cc1NC(=S)C2` [Compound I-75, 2-({2-methyl-6-[methyl(1-methylpiperidin-4-yl)amino]pyridin-3-yl}amino)-9-(trifluoromethyl)-5,7-dihydro-6H-pyrimido[5,4-d][1]benzazepine-6-thione], the IC50 was less than 5 nM.

For `Cc1nc(C(=O)NCCN(C)C)ccc1Nc1ncc2c(n1)-c1ccc(C(F)(F)F)cc1NC(=S)C2` [Compound I-118, N-[2-(dimethylamino)ethyl]-6-methyl-5-{[6-thioxo-9-(trifluoromethyl)-6,7-dihydro-5H-pyrimido[5,4-d][1]benzazepin-2-yl]amino}pyridine-2-carboxamide], the IC50 was in the range of 5 to 25 nM.

On to `CN(C)CCc1cncc(Nc2ncc3c(n2)-c2ccc(C(F)(F)F)cc2NC(=S)C3)c1` [Compound I-25, 2-({5-[2-(dimethylamino)ethyl]pyridin-3-yl}amino)-9-(trifluoromethyl)-5,7-dihydro-6H-pyrimido[5,4-d][1]benzazepine-6-thione], for which the IC50 is less than 5 nM.

With `Cc1ncc(C2CCN(C)CC2(C)C)cc1Nc1ncc2c(n1)-c1ccc(Cl)cc1NC(=S)C2` (stereo not shown) [Compound I-63, 9-chloro-2-{[2-methyl-5-(1,3,3-trimethylpiperidin-4-yl)pyridin-3-yl]amino}-5,7-dihydro-6H-pyrimido[5,4-d][1]benzazepine-6-thione], the IC50 is less than 5 nM.

For `Cc1nc(CCCN(C)C)ccc1Nc1ncc2c(n1)-c1ccc(C(F)(F)F)cc1NC(=S)C2` [Compound I-101, 2-({6-[3-(dimethylamino)propyl]-2-methylpyridin-3-yl}amino)-9-(trifluoromethyl)-5,7-dihydro-6H-pyrimido[5,4-d][1]benzazepine-6-thione], the 50% inhibitory concentration (IC50) lay within 5 to 25 nM.

Turning to `Cc1nc(NC2CCN(C)CC2)ccc1Nc1ncc2c(n1)-c1ccc(C3CC3)cc1NC(=S)C2` [Compound I-80, 9-cyclopropyl-2-({2-methyl-6-[(1-methylpiperidin-4-yl)amino]pyridin-3-yl}amino)-5,7-dihydro-6H-pyrimido[5,4-d][1]benzazepine-6-thione], the IC50 was less than 5 nM.

On to `CCN1CCN(c2cncc(Nc3ncc4c(n3)-c3ccc(Cl)cc3NC(=S)C4)c2)C[C@@H]1C` [Compound I-11, 9-chloro-2-({5-[(3S)-4-ethyl-3-methylpiperazin-1-yl]pyridin-3-yl}amino)-5,7-dihydro-6H-pyrimido[5,4-d][1]benzazepine-6-thione], for which the 50% inhibitory concentration (IC50) is less than 5 nM.

Turning to `Cc1ncc(CCN2C[C@@H](C)O[C@H](C)C2)cc1Nc1ncc2c(n1)-c1ccc(Cl)cc1NC(=S)C2` [Compound I-10], the IC50 is less than 5 nM.

For the compound `Cc1ccc(Nc2ncc3c(n2)-c2ccc(C(F)(F)F)cc2NC(=S)C3)c(C)n1` [Compound I-4, 2-[(2,6-dimethylpyridin-3-yl)amino]-9-(trifluoromethyl)-5,7-dihydro-6H-pyrimido[5,4-d][1]benzazepine-6-thione], the IC50 was less than 5 nM.

`COc1ncc(CCCN(C)C)cc1Nc1ncc2c(n1)-c1ccc(Cl)cc1NC(=S)C2` [Compound I-24, 9-chloro-2-({5-[3-(dimethylamino)propyl]-2-methoxypyridin-3-yl}amino)-5,7-dihydro-6H-pyrimido[5,4-d][1]benzazepine-6-thione]: the IC50 was less than 5 nM.

Regarding `S=C1Cc2cnc(Nc3ccc(N4CCCC4)nc3)nc2-c2ccc(Cl)cc2N1` [Compound I-47, 9-chloro-2-[(6-pyrrolidin-1-ylpyridin-3-yl)amino]-5,7-dihydro-6H-pyrimido[5,4-d][1]benzazepine-6-thione], the IC50 was less than 5 nM.

Turning to `Cc1nc(N2CCN(C)CC2)ccc1Nc1ncc2c(n1)-c1ccc(Cl)cc1NC(=S)C2` [Compound I-73, 9-chloro-2-{[2-methyl-6-(4-methylpiperazin-1-yl)pyridin-3-yl]amino}-5,7-dihydro-6H-pyrimido[5,4-d][1]benzazepine-6-thione], the IC50 was less than 5 nM.

With `Cc1nc(N2CCCC(N(C)C)C2)ccc1Nc1ncc2c(n1)-c1ccc(Cl)cc1NC(=S)C2` (stereo not shown) [Compound I-7, 9-chloro-2-({6-[3-(dimethylamino)piperidin-1-yl]-2-methylpyridin-3-yl}amino)-5,7-dihydro-6H-pyrimido[5,4-d][1]benzazepine-6-thione], the concentration for half-maximal inhibition (IC50) is less than 5 nM.

`S=C1Cc2cnc(Nc3ccc(N4CCOCC4)nc3)nc2-c2ccc(Cl)cc2N1` [Compound I-13, 9-chloro-2-[(6-morpholin-4-ylpyridin-3-yl)amino]-5,7-dihydro-6H-pyrimido[5,4-d][1]benzazepine-6-thione]: the IC50 is less than 5 nM.

As to `Cc1nc(N(C)C2CCN(C)CC2)ccc1Nc1ncc2c(n1)-c1ccc(Cl)cc1NC(=S)C2` [Compound I-105, 9-chloro-2-({2-methyl-6-[methyl(1-methylpiperidin-4-yl)amino]pyridin-3-yl}amino)-5,7-dihydro-6H-pyrimido[5,4-d][1]benzazepine-6-thione], the IC50 is less than 5 nM.

In the case of `CCc1ccc2c(c1)NC(=S)Cc1cnc(Nc3cc(CCCN(C)C)cnc3C)nc1-2` [Compound I-5, 2-({5-[3-(dimethylamino)propyl]-2-methylpyridin-3-yl}amino)-9-ethyl-5,7-dihydro-6H-pyrimido[5,4-d][1]benzazepine-6-thione], the IC50 is less than 5 nM.

As for `Cc1ncc(CCN2C[C@@H](C)O[C@@H](C)C2)cc1Nc1ncc2c(n1)-c1ccc(Cl)cc1NC(=S)C2` [Compound I-31, 9-chloro-2-[(5-{2-[(2R,6S)-2,6-dimethylmorpholin-4-yl]ethyl}-2-methylpyridin-3-yl)amino]-5,7-dihydro-6H-pyrimido[5,4-d][1]benzazepine-6-thione], the IC50 was less than 5 nM.

Turning to `Cc1nc(C)c(Nc2ncc3c(n2)-c2ccc(Cl)cc2NC(=S)C3)cc1CCCN(C)C` [Compound I-42, 9-chloro-2-({5-[3-(dimethylamino)propyl]-2,6-dimethylpyridin-3-yl}amino)-5,7-dihydro-6H-pyrimido[5,4-d][1]benzazepine-6-thione], the IC50 was less than 5 nM.

As for `Cc1ncc(C2CCN(CCF)CC2)cc1Nc1ncc2c(n1)-c1ccc(Cl)cc1NC(=S)C2` [Compound I-84, 9-chloro-2-({5-[1-(2-fluoroethyl)piperidin-4-yl]-2-methylpyridin-3-yl}amino)-5,7-dihydro-6H-pyrimido[5,4-d][1]benzazepine-6-thione], the IC50 was less than 5 nM.

For `Cc1ncc(CCN(C)C)cc1Nc1ncc2c(n1)-c1ccc(C(F)(F)F)cc1NC(=S)C2` [Compound I-50, 2-({5-[2-(dimethylamino)ethyl]-2-methylpyridin-3-yl}amino)-9-(trifluoromethyl)-5,7-dihydro-6H-pyrimido[5,4-d][1]benzazepine-6-thione], the half-inhibitory concentration (IC50) was less than 5 nM.

On to `Cc1nc(NC2CCN(C)CC2)ccc1Nc1ncc2c(n1)-c1ccc(C(F)(F)F)cc1NC(=S)C2` [Compound I-92, 2-({2-methyl-6-[(1-methylpiperidin-4-yl)amino]pyridin-3-yl}amino)-9-(trifluoromethyl)-5,7-dihydro-6H-pyrimido[5,4-d][1]benzazepine-6-thione], for which the IC50 is less than 5 nM.

For the compound `Cc1ncc(CCN2CCCC2)cc1Nc1ncc2c(n1)-c1ccc(Cl)cc1NC(=S)C2` [Compound I-45, 9-chloro-2-{[2-methyl-5-(2-pyrrolidin-1-ylethyl)pyridin-3-yl]amino}-5,7-dihydro-6H-pyrimido[5,4-d][1]benzazepine-6-thione], the IC50 was less than 5 nM.

As for `CN(C)CCc1cncc(Nc2ncc3c(n2)-c2ccc(Cl)cc2NC(=S)C3)c1` [Compound I-104, 9-chloro-2-({5-[2-(dimethylamino)ethyl]pyridin-3-yl}amino)-5,7-dihydro-6H-pyrimido[5,4-d][1]benzazepine-6-thione], the IC50 was less than 5 nM.

In the case of `Cc1nc(CCCN(C)C)ccc1Nc1ncc2c(n1)-c1ccc(Cl)cc1NC(=S)C2` [Compound I-16, 9-chloro-2-({6-[3-(dimethylamino)propyl]-2-methylpyridin-3-yl}amino)-5,7-dihydro-6H-pyrimido[5,4-d][1]benzazepine-6-thione], the IC50 lay in the range of 5 to 25 nM.

Regarding `Cc1ncc(CCCCN(C)C)cc1Nc1ncc2c(n1)-c1ccc(C(F)(F)F)cc1NC(=S)C2` [Compound I-12, 2-({5-[4-(dimethylamino)butyl]-2-methylpyridin-3-yl}amino)-9-(trifluoromethyl)-5,7-dihydro-6H-pyrimido[5,4-d][1]benzazepine-6-thione], the IC50 was less than 5 nM.

For `Cc1nc(OC2CCN(C)CC2)ccc1Nc1ncc2c(n1)-c1ccc(Cl)cc1NC(=S)C2` [Compound I-56, 9-chloro-2-({2-methyl-6-[(1-methylpiperidin-4-yl)oxy]pyridin-3-yl}amino)-5,7-dihydro-6H-pyrimido[5,4-d][1]benzazepine-6-thione], the IC50 lay within 5 to 25 nM.

On to `CN(C)CCc1cnc(C(F)(F)F)c(Nc2ncc3c(n2)-c2ccc(Cl)cc2NC(=S)C3)c1` [Compound I-70, 9-chloro-2-{[5-[2-(dimethylamino)ethyl]-2-(trifluoromethyl)pyridin-3-yl]amino}-5,7-dihydro-6H-pyrimido[5,4-d][1]benzazepine-6-thione], for which the IC50 lay in the range of 5 to 25 nM.

Consider `Cc1nc(N(C)CCN(C)C)ccc1Nc1ncc2c(n1)-c1ccc(C(F)(F)F)cc1NC(=S)C2` [Compound I-35, 2-({6-[[2-(dimethylamino)ethyl](methyl)amino]-2-methylpyridin-3-yl}amino)-9-(trifluoromethyl)-5,7-dihydro-6H-pyrimido[5,4-d][1]benzazepine-6-thione], for which the IC50 was in the range of 5 to 25 nM.
